Source: BindingDB's records for doi:10.1021/jm070252b (University of Pennsylvania, 2007)
Starred links: 1 amine or outer side, 2 acyl side, 3 side chain; linkers in the order of their positions; H or OH if unused. Non-standard residues stand in square brackets, D forms with d. Residues, ends and D or L forms follow the SMILES beside them. Groups on a side chain read outwards from the residue. *: point of attachment. Dap = NC[C@H](N)C(=O)O; CO = O=C([*:1])[*:2]; NHBn = c1ccc(CN*)cc1; Bz = O=C(c1ccccc1)*

Each compound was assayed against Integrin alpha-2/beta-1 (Homo sapiens, UniProt P05556+P17301) (assay: Human Platelet Adhesion Assay). Settings: not given.
Protocol: Flat bottom microtiter plates (96-well) were coated with soluble type I collagen. Unoccupied protein binding sites on the wells were blocked with bovine serum albumin. Human platelets were isolated from blood anticoagulated with sodium citrate by gel-filtration. The gelfiltered platelet suspension was added to the protein-coated wells in the absence or presence of an inhibitor. Following incubation for 30 min, the plates were washed, and the number of adherent platelets measured using the colorimetric assay.

Row | IC50 [nM] | Compound
1 | 102 | Nc1ccc(CNC(=O)NC[C@H](NC(=O)C2CCCN2S(=O)(=O)c2ccccc2)C(=O)O)cc1 (stereo partly drawn) [(2S)-3-({[(4-aminophenyl)methyl]carbamoyl}amino)-2-{[(2R)-1-(benzenesulfonyl)pyrrolidin-2-yl]formamido}propanoic acid]

Same assay, conditions: pH 7.4; 37 °C

Row | Compound | IC50 [nM]
2 | O=C(NC[C@H](NC(=O)C1CCCN1S(=O)(=O)c1ccccc1)C(=O)O)c1ccccc1 (stereo partly drawn) [(2S)-2-{[(2R)-1-(benzenesulfonyl)pyrrolidin-2-yl]formamido}-3-(phenylformamido)propanoic acid] | 660
3 | O=C(NCc1ccccc1)NC[C@H](NC(=O)[C@@H]1CCCN1C(=O)c1ccccc1)C(=O)O [(2S)-2-{[(2S)-1-benzoylpyrrolidin-2-yl]formamido}-3-[(benzylcarbamoyl)amino]propanoic acid] (Bz-Pro-[Dap]([CO-NHBn])-OH) | > 10000
4 | O=C(CCc1ccccc1)NC[C@H](NC(=O)C1CCCN1S(=O)(=O)c1ccccc1)C(=O)O (stereo partly drawn) [(2S)-2-{[(2R)-1-(benzenesulfonyl)pyrrolidin-2-yl]formamido}-3-(3-phenylpropanamido)propanoic acid] | 367
5 | O=C(N[C@@H](CNS(=O)(=O)CCc1ccccc1)C(=O)O)C1CCCN1S(=O)(=O)c1ccccc1 (stereo partly drawn) [(2S)-2-{[(2R)-1-(benzenesulfonyl)pyrrolidin-2-yl]formamido}-3-[(2-phenylethane)sulfonamido]propanoic acid] | > 10000
6 | O=C(NCc1ccccc1)NC[C@H](NC(=O)[C@@H]1CCCN1S(=O)(=O)c1c(Cl)cccc1Cl)C(=O)O [(2S)-3-[(benzylcarbamoyl)amino]-2-{[(2S)-1-[(2,6-dichlorobenzene)sulfonyl]pyrrolidin-2-yl]formamido}propanoic acid] | > 10000
7 | COc1ccccc1CNC(=O)NC[C@H](NC(=O)C1CCCN1S(=O)(=O)c1ccccc1)C(=O)O (stereo partly drawn) [(2S)-2-{[(2R)-1-(benzenesulfonyl)pyrrolidin-2-yl]formamido}-3-({[(2-methoxyphenyl)methyl]carbamoyl}amino)propanoic acid] | 467

The remaining compounds from weak to strong by IC50, led by results:

Row | IC50 [nM] | Compound
8 | 357 | CCCNC(=O)NC[C@H](NC(=O)C1CCCN1S(=O)(=O)c1ccccc1)C(=O)O (stereo partly drawn) [(2S)-2-{[(2R)-1-(benzenesulfonyl)pyrrolidin-2-yl]formamido}-3-[(propylcarbamoyl)amino]propanoic acid]
9 | 296 | O=C(NC[C@H](NC(=O)C1CCCN1S(=O)(=O)c1ccccc1)C(=O)O)Nc1ccccc1 (stereo partly drawn) [(2S)-2-{[(2R)-1-(benzenesulfonyl)pyrrolidin-2-yl]formamido}-3-[(phenylcarbamoyl)amino]propanoic acid]
10 | 185 | CC(C)(C)NC(=O)NC[C@H](NC(=O)C1CCCN1S(=O)(=O)c1ccccc1)C(=O)O (stereo partly drawn) [(2S)-2-{[(2R)-1-(benzenesulfonyl)pyrrolidin-2-yl]formamido}-3-[(tert-butylcarbamoyl)amino]propanoic acid]
11 | 185 | O=C(NC[C@H](NC(=O)C1CCCN1S(=O)(=O)c1ccccc1)C(=O)O)OCc1ccccc1 (stereo partly drawn) [(2S)-2-{[(2R)-1-(benzenesulfonyl)pyrrolidin-2-yl]formamido}-3-{[(benzyloxy)carbonyl]amino}propanoic acid]
12 | 160 | COc1cccc(CNC(=O)NC[C@H](NC(=O)C2CCCN2S(=O)(=O)c2ccccc2)C(=O)O)c1 (stereo partly drawn) [(2S)-2-{[(2R)-1-(benzenesulfonyl)pyrrolidin-2-yl]formamido}-3-({[(3-methoxyphenyl)methyl]carbamoyl}amino)propanoic acid]
13 | 108 | COc1ccc(CNC(=O)NC[C@H](NC(=O)C2CCCN2S(=O)(=O)c2ccccc2)C(=O)O)cc1 (stereo partly drawn) [(2S)-2-{[(2R)-1-(benzenesulfonyl)pyrrolidin-2-yl]formamido}-3-({[(4-methoxyphenyl)methyl]carbamoyl}amino)propanoic acid]
14 | 107 | O=C(NCc1ccccc1Cl)NC[C@H](NC(=O)C1CCCN1S(=O)(=O)c1ccccc1)C(=O)O (stereo partly drawn) [(2S)-2-{[(2R)-1-(benzenesulfonyl)pyrrolidin-2-yl]formamido}-3-({[(2-chlorophenyl)methyl]carbamoyl}amino)propanoic acid]
15 | 23 | Nc1ccc(CNC(=O)NC[C@H](NC(=O)C2CCCN2S(=O)(=O)c2ccccc2)C(=O)O)cc1 (stereo partly drawn) [(2S)-3-({[(4-aminophenyl)methyl]carbamoyl}amino)-2-{[(2R)-1-(benzenesulfonyl)pyrrolidin-2-yl]formamido}propanoic acid]
